Measured values as given in patent US9745261B2, “Inhibitors of the MITF molecular pathway” (THE GENERAL HOSPITAL CORPORATION, priority 2013, dated 2017).

Assays:
[1] = test system: human melanoma cell lines; experiment: Cell viability of human melanoma cell lines (CellTiter-Glo, 48-72 hours); format: cell-based
Procedure: (§1) Experiments described in this example were performed using methods as described in Haq et al. (2013). Oncogenic BRAF regulates oxidative metabolism via PGC1α and MITF. Cancer Cell. 2013 Mar. 18; 23(3):302-15.
(§2) Indicated cell line was treated with varying concentrations of ML329 for 48-72 hours. Viability was measured using the CellTiter-Glo reagent (Promega).

[2] = test system: non-melanoma cells; experiment: Non-melanoma cell viability (CellTiter-Glo, 48-72 hours); format: cell-based
Procedure: as §1, §2

[3] = test system: MITF and MITF target genes; experiment: qPCR of MITF and MITF target genes in human melanoma cell lines and primary melanocytes; format: cell-based; settings: 24 h, multiple cell lines
Procedure: as §1
Effect of ML329 (24 h at indicated concentration) on MITF mRNA and target gene mRNA expression in melanoma cell lines. mRNA was quantified by qPCR.

[4] = test system: MITF protein; experiment: MITF protein by Western immunoblotting in SKMEL-5 cells; format: cell-based, human
Procedure: as §1
MITF protein was detected using Western immunoblotting. In parallel, SK-MEL-5 cells treated with ML329 (above) were lysed and MITF mRNA was quantified by qPCR (FIG. 12b).

[5] = test system: SK-MEL-5 cells; experiment: SK-MEL-5 cell cytotoxicity assay (CellTiter-Glo); format: cell-based, human; settings: FIG. 13
Procedure: SK-MEL-5 cells were treated with compounds for 24 hours, and then cell viability was measured using the CellTiter-Glo Assay (Promega), a luciferase-based reagent that measures cellular ATP levels. The compounds were tested at different concentrations to determine IC50 values. Compounds that were active in the primary assay and toxic below 30 μM at 24 hours were considered for probe development. Data were normalized against DMSO in Genedata Screener's Assay Analyzer.
SK-MEL-5 cells were maintained in DMEM (10% FBS, 1% Pen-Strep-Glutamine). Cells were fluid changed every 3 days and/or split upon reaching 100% confluency. For secondary assays, cells were thawed at 4 million cells per Falcon T175 flask. After 3 days, the cells were fluid changed, after 3 more days cells were passed to a Corning Triple flask (10-15 million cells) and plated after 3 days in the triple flask.
Day 1 • 1. Plate SK-MEL-5 cells at 3,000 per well in 30 uL media (phenol red free DMEM/10% Fetal Bovine Serum/Penicillin/Streptomycin/L-Glutamine) • 2. Use Corning white 384-well, square, opaque-bottomed plates (Corning Catalog No. 8867BC)
Day 2 • 3. Pin 100 nL compound/DMSO solution (Cybi Well) into assay plates. (For HTS, required sentinel pinning with the positive control, parthenolide (6 mM)) • 4. […]
(§3) Day 3 • 5. […] Read on the Perkin-Elmer EnVision plate reader with luminescence (LUM) settings for 0.1 sec per well. […]

[6] = test system: MALME-3M cells; experiment: MALME-3M cell cytotoxicity assay (CellTiter-Glo); format: cell-based, human; settings: FIG. 13
Procedure: MALME-3M cells were treated with compounds for 24 hours, and then cell viability was measured using the CellTiter-Glo Assay (Promega), a luciferase-based reagent that measures cellular ATP levels. The compounds were tested at different concentrations to determine IC50 values. Compounds that were active in the primary assay and toxic below 30 μM at 24 hours were considered for probe development. Data were normalized against DMSO in Genedata Screener's Assay Analyzer.
MALME-3M cells were maintained in IMDM (20% FBS, 1% Pen-Strep-Glutamine). Cells were fluid changed every 3 days and/or split upon reaching 100% confluency. For secondary assays, cells were thawed at 6 million cells per Falcon T175 flask. After 3 days, cells were fluid changed, after 3 more days cells were passed to a Corning Triple flask (15-18 million cells) and plated after 3 days in the triple flask.
Day 1 • 1. Plate MALME-3M cells at 3,000 per well in 30 uL media (phenol red free IMDM/10% Fetal Bovine Serum/Penicillin/Streptomycin/L-Glutamine) • 2. Use Corning white 384-well, square, opaque-bottomed plates (Corning Catalog No. 8867BC)
Day 2 • 3. Pin 100 nL compound/DMSO solution (Cybi Well) into assay plates, including the positive control. • 4. Incubate 24 hours at 37° C. in Liconic incubator.
as §3

[7] = test system: A375 cells; experiment: A-375 cell cytotoxicity assay (CellTiter-Glo); format: cell-based, human; settings: FIG. 13
Procedure: A375 cells were treated with compounds for 24 hours, and then cell viability was measured using the CellTiter-Glo Assay (Promega), a luciferase-based reagent that measures cellular ATP levels. The compounds were tested at different concentrations to determine IC50 values. Compounds that were active in the primary assay and were not toxic below 30 μM at 24 hours were considered for probe development. Data were normalized against DMSO in Genedata Screener's Assay Analyzer.
A-375 cells were maintained in DMEM (10% FBS, 1% Pen-Strep-Glutamine). Cells were fluid changed every 3 days and/or split upon reaching 90% confluency. For secondary assays, cells were thawed at 2 million cells per Falcon T175 flask. After 3 days, cells were passed to a Corning Triple flask (6-8 million cells) and plated after 3 days in the triple flask.
Day 1 • 1. Plate A-375 cells at 3,000 per well in 30 uL media (phenol red free DMEM/10% Fetal Bovine Serum/Penicillin/Streptomycin/L-Glutamine) • 2. Use Corning white 384-well, square, opaque-bottomed plates (Corning Catalog No. 8867BC)
Day 2 • 3. Pin 100 nL compound/DMSO solution (Cybi Well) into assay plates. (For HTS, required sentinel pinning with the positive control, parthenolide (6 mM)) • 4. Incubate 24 hours at 37° C. in Liconic incubator.
as §3

[8] = test system: CDK2; experiment: qPCR assay for CDK2 expression in SK-MEL-5 cells; format: cell-based, human; settings: qPCR
Procedure: SK-MEL-5 cells were treated with compounds for 24 hours. Next, cells were lysed with DNase I (Ambion, from Cell to CT Lysis Mix). Lysed cells were delivered to a RT-PCR plate (Ambion, Cells to CT RT Mix) and the plates were then processed for reverse transcription to create cDNA. qPCR was performed by transferring cDNA from the RT-PCR plate to a qPCR plate containing PCR master mix (Roche, Probes Master), FAM Taqman probe/primer set for the target gene (human MITF, Applied Biosystem, 4331182 Hs01117294_m1), VIC Taqman probe/primer set for a house keeping gene (human GAPDH, Applied Biosystems C10228) and water. qPCR plates were cycled using a real-time PCR instrument (Roche, Light Cycler). Using the instrument software, a cycle call was generated when each well enters log phase amplification (Ct). The delta Ct value was determined by subtracting the Ct value of the control gene (GAPDH) from the Ct value of the target gene (MITF) in each well. The delta delta Ct value of each compound treatment was determined by averaging the delta Ct values of the mock well on each plate and subtracting that average from the delta Ct value of each compound well. […]
• 10. […] The RT assay plates are incubated at 37° C. for 1 hour and the reverse transcriptase is inactivated by incubating the plates for 1 minute at 95° C. • 13. cDNA is stored at −80° C. until ready for qPCR analysis […]

Structure (SMILES) | Sensitivity of melanoma cell lines (cell viability) ([1]; A375, SKMEL2, IPC298 and SK30) | Cytotoxicity in a large number of melanoma cells ([1]; CellTiter-Glo, incl. vemurafenib-resistant lines) | Sensitivity of melanoma cell lines (cell viability) ([1]; SKMEL5, IST MEL, MALME-3M and 501 MEL) | Sensitivity of melanoma cell lines (cell viability) ([1]; UACC257, C32, COLO800 and MZ2MEL) | Cytotoxicity in non-melanoma cells or melanoma cells lacking MITF [2] | Effect on MITF mRNA and target gene mRNA expression [3] | Effect on MITF protein [4] | Cell viability, SK-MEL-5 (MITF-dependent), result in words [5] | Cell viability, MALME-3M (MITF-dependent), result in words [6] | Cell viability, A-375 (MITF-independent), result in words [7] | CDK2 expression, result in words [8]
NS(=O)(=O)c1ccc(NC2=CC(=O)c3ccccc3C2=O)cc1 [ML329, 4-((1,4-dioxo-1,4-dihydronaphthalen-2-yl)amino)benzenesulfonamide] | less sensitive | variably cytotoxic | very sensitive | sensitive | not cytotoxic | suppresses MITF and its transcriptional activity | suppresses MITF protein |  |  |  | 
Cc1nc2ccccc2n1/N=C/c1ccc([N+](=O)[O-])s1 |  |  |  |  |  |  |  | specific activity against the MITF-dependent cells | specific activity against the MITF-dependent cells | no impairment of viability | reduced the expression
